Experimental data as given in patent US9365563B2, “TRPV1 antagonists including dihydroxy substituent and uses thereof” (Purdue Pharma L.P., priority 2007, dated 2016).
Like-named read-outs stand apart in the source and are kept apart here.

What was measured:
[1] = Plasma concentration after administration to an animal; type: in vivo
[2] = Bioavailability following oral administration; type: in vivo
[3] = biological target: T1, human TRPV1 (Homo sapiens (Human), UniProt Q8NER1); test: pH-based assay, Protocol 2 (hpH-CHO); type: cell-based; settings: TRPV1/CHO cells, pH 5.0-5.1; mean ± SEM; read-out: TRPV1 IC50 Potency Human pH CHO (hpH-CHO)
T1 sequence (Q8NER1 whole entry): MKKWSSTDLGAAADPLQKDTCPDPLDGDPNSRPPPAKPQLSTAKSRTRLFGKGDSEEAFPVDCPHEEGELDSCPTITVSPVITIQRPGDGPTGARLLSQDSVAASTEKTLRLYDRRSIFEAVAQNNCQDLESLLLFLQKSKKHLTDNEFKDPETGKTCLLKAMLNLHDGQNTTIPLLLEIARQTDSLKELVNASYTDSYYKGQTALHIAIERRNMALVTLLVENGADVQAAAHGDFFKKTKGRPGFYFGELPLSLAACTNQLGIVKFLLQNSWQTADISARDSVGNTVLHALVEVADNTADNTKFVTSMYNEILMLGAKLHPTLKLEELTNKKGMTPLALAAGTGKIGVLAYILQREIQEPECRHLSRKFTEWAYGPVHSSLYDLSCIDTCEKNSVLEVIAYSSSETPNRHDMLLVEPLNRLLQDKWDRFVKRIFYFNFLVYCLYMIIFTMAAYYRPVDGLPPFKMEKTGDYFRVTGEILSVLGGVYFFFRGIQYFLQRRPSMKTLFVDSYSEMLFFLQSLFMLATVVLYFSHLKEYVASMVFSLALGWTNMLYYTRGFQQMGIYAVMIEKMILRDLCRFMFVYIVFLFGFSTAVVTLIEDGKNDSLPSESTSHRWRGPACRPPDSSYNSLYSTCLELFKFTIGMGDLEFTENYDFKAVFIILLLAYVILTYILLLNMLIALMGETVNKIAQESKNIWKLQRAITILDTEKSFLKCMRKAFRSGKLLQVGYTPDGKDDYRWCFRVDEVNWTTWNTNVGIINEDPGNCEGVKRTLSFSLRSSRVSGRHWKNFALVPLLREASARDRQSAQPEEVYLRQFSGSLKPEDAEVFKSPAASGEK
Excerpt: For Protocol 2, a Chinese Hamster Ovary cell line (CHO) that has been engineered to constitutively express human recombinant TRPV1 was used (TRPV1/CHO cells). The TRPV1/CHO cell line was generated as described below.
The resulting PCR products were purified from agarose gels using Gel Band Purification Kit (GE Healthcare Bioscience) and were subcloned into pCR-Blunt vector (Invitrogen). The cloned cDNA was fully sequenced using a fluorescent dye-terminator reagent (BigDye Terminator ver3.1 Cycle Sequencing Kit, Applied Biosystems) and ABI Prism 3100 genetic analyzer (Applied Biosystems). The pCR-Blunt vector containing the hTRPV1 cDNA was subjected to restriction digestion with EcoR1. […] The sequence of the cDNA encoding TRPV1 is available at GenBank accession number AJ277028.
CHO-K1 cells were maintained in growth medium consisting of α-MEM, 10% FBS (Hyclone), and 100 IU/mL of penicillin-100 μg/mL of streptomycin mixed solution (Nacalai Tesque, Japan) at 37° C. in an environment of humidified 95% air and 5% CO2. […] 24 hr after transfection, neomycin-resistant cells were selected using 1 mg/mL G418 (Nacalai Tesque). […]
(5) The Fura-2 fluorescent intensity was monitored at a wavelength of 340 nm and at 380 nm, respectively, at a rate of 0.5 Hz for a total of 240 seconds.

[4] = Aqueous solubility; type: physicochemical
[5] = tested on: FCA-induced inflammation of the rat hind paw; test: FCA model of inflammatory pain (thermal hyperalgesia, plantar test); type: in vivo; settings: for ED50: read-out: ED50 for reversal of FCA-induced thermal hyperalgesia
Experimental: Each experiment uses rats weighing between 200-260 g at the start of the experiment. The rats are group-housed and have free access to food and water at all times, except prior to oral administration of a compound of formula I when food is removed for 16 hours before dosing. A control group acts as a comparison to rats treated with a compound of formula I. The control group is administered the carrier for the compound of formula I. The volume of carrier administered to the control group is the same as the volume of carrier and compound of formula I administered to the test group.
To assess the actions of the compounds of formula I on the treatment or prevention of inflammatory pain the Freund's complete adjuvant (“FCA”) model of inflammatory pain is used. FCA-induced inflammation of the rat hind paw is associated with the development of persistent inflammatory mechanical and thermal hyperalgesia and provides reliable prediction of the anti-hyperalgesic action of clinically useful analgesic drugs (L. Bartho et al., “Involvement of Capsaicin-sensitive Neurones in Hyperalgesia and Enhanced Opioid Antinociception in Inflammation,” Naunyn-Schmiedeberg's Archives of Pharmacol. 342:666-670 (1990)). The left hind paw of each animal is administered a 50 μL intraplantar injection of 50% FCA. 24 hour post injection, the animal is assessed for response to noxious mechanical stimuli by determining the PWT, or to noxious thermal stimuli by determining the PWL, as described below. […] Responses to noxious mechanical or thermal stimuli are then determined 1, 3, 5 and 24 hours post administration. […]
The plantar test can be used to assess thermal hyperalgesia. For this test, hind paw withdrawal latencies (PWL) to a noxious thermal stimulus are determined using a plantar test apparatus (commercially available from Ugo Basile of Italy) following the technique described by K. Hargreaves et al., “A New and Sensitive Method for Measuring Thermal Nociception in Cutaneous Hyperalgesia,” Pain 32(1):77-88 (1988). […] Three latencies are determined at each time point and averaged. […]

[6] = biological target: T1, human TRPV1; test: Capsaicin-based assay, Protocol 2 (hCAP-CHO); type: cell-based; settings: TRPV1/CHO cells, 100 nM capsaicin; mean ± SEM; read-out: TRPV1 IC50 Potency Human Capsaicin CHO (hCAP-CHO)
Excerpt: The TRPV1/CHO cell line was generated as described below. […] The resulting PCR products were purified from agarose gels using Gel Band Purification Kit (GE Healthcare Bioscience) and were subcloned into pCR-Blunt vector (Invitrogen). The cloned cDNA was fully sequenced using a fluorescent dye-terminator reagent (BigDye Terminator ver3.1 Cycle Sequencing Kit, Applied Biosystems) and ABI Prism 3100 genetic analyzer (Applied Biosystems). The pCR-Blunt vector containing the hTRPV1 cDNA was subjected to restriction digestion with EcoR1. The restriction fragment was subcloned into expression vector pcDNA3.1(-) (Invitrogen) and named pcDNA3.1(-)-hVR1 plasmid. The sequence of the cDNA encoding TRPV1 is available at GenBank accession number AJ277028. […] The cells were transfected with the pcDNA3.1(-)-hVR1 plasmid using FuGENE6 (Roche) according to the manufacturer's protocol. 24 hr after transfection, neomycin-resistant cells were selected using 1 mg/mL G418 (Nacalai Tesque). […] The cells expressing hTRPV1 were cultured in the growth medium supplemented with 1 mg/mL G418. […] Subsequently, the cells were loaded by incubation in 0.1 mL of wash buffer containing Fluo-4 at 3 μM final concentration. After 1 hour, the cells were washed twice with 0.2 mL wash buffer and resuspended in 0.1 mL wash buffer. The plates were then transferred to a Fluorescence Imaging Plate Reader (Molecular Devices). Fluorescence intensity was monitored for 15 seconds to establish a baseline. […] The final concentration of the compound was adjusted to range from 100 μM to 1.5625 μM. […] Data were collected over the entire time course and analyzed using Excel and the curve-fitting formula GraphPad Prism.

CC(O)(CO)c1cnc(C2=CCN(C(=O)Nc3ccc(C(F)(F)F)cc3)CC2)c(Cl)c1 (stereo not shown) [Compound R6]
time to maximum plasma concentration after administration ([1]; animal plasma): 1.85 h
maximum plasma concentration relative to the maximum for compound 200 ([1]; animal plasma, for a given dose): 5.3 times
plasma concentration up to 24 h compared with compound 200 ([1]; up to 24 h): consistently greater
bioavailable following oral administration [2]: 68.9%

N#CCc1cnc(C2=CCN(C(=O)Nc3ccc(C(F)(F)F)cc3)CC2)c(Cl)c1 [Compound E6, 4-(3-chloro-5-(cyanomethyl)pyridin-2-yl)-N-(4-(trifluoromethyl)phenyl)-5,6-dihydropyridine-1(2H)-carboxamide]
IC50 [3]: 164 nM
aqueous solubility at pH 1.2 ([4]; pH 1.2): 27.2 μM
aqueous solubility at pH 6.8 ([4]; pH 6.8): 9.0 μM

O=C(Nc1ccc(C(F)(F)F)c(Cl)c1)N1CC=C(c2ncc([C@H](O)CO)cc2Cl)CC1 [Compound D2, (S)-3-Chloro-5-(1,2-dihydroxy-ethyl)-3′,6′-dihydro-2′H-[2,4]bipyridinyl-1′-carboxylic acid (3-chloro-4-trifluoromethyl-phenyl)amide]
ED50 ([5]; 3 hours after administration): 0.95 mg/kg
maximum % reversal of FCA-induced thermal hyperalgesia ([5]; 5 hours after administration): 78.7%
ED50 ([5]; 5 hours after administration): 1.63 mg/kg

O=C(Nc1ccc(C(F)(F)F)cn1)N1CCC(F)(c2ncc([C@H](O)CO)cc2Cl)CC1 [Compound G1]
bioavailability ([2]; in vivo, read-out: bioavailable following oral administration): 70.7%

O=C(Nc1ccc(OC(F)(F)F)c(Cl)c1)N1CC=C(c2ncc([C@H](O)CO)cc2Cl)CC1 [Compound Y1, (S)-3-Chloro-5-(1,2-dihydroxy-ethyl)-3′,6′-dihydro-2′H-[2,4]bipyridinyl-1′-carboxylic acid (3-chloro-4-trifluoromethoxy-phenyl)amide]
IC50 [6]: 74.7 ± 18.4 nM
IC50 [3]: 13.5 ± 1.2 nM
